Measured values from article PMC10023970 (The Journal of Biological Chemistry, 2023).
Read-outs that look alike come from different tables or passages of the source. Each block holds one molecule with its values, some of them ahead of it.

How the values were obtained:
OSA = experiment: cells
U2OS = experiment: cells; conditions: Homo sapiens, U2OS
RD = experiment: cells; conditions: Homo sapiens, RD
Brag2Sec7-PH = Brag2Sec7-PH (Homo sapiens, UniProt Q6DN90); experiment: GEF assay, […]GTPgammaS binding to Arf1, filter trapping; type: biochemical
C2C12 = experiment: cells; conditions: Mus musculus
SMS-CTR = experiment: cells
NIH3T3 = experiment: cells; conditions: Mus musculus
ASAP1PZA [1] = target: T1, ASAP1PZA (Mus musculus, UniProt Q9QWY8); experiment: GAP assay, conversion of Arf1-GTP to Arf1-GDP; type: biochemical
T1 sequence (Q9QWY8 325-724 limits assumed): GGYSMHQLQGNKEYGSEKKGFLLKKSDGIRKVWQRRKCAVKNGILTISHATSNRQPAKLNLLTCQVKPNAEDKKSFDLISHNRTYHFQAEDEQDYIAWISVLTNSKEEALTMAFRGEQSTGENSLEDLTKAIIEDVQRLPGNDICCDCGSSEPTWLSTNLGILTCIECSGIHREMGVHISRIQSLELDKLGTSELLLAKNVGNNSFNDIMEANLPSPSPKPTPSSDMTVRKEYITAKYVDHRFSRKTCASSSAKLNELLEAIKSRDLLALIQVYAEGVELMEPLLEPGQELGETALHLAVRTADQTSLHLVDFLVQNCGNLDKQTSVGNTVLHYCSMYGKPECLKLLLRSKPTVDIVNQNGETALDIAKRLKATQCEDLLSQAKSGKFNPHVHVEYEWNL

ASAP1 (full-length) = ASAP1 (full-length) (Mus musculus, UniProt Q9QWY8); experiment: GAP assay, conversion of Arf1-GTP to Arf1-GDP; type: biochemical
myrArf1 = conditions: NAV-2729 partitioned in LUVs; PBS, room temperature; not myristoylated
HeLa = experiment: cells; conditions: Homo sapiens, HeLa, read-out: EC50 for cell killing (μM) / SecinH3
MCF 10A = experiment: cells; conditions: Homo sapiens, MCF-10A, read-out: EC50 for cell killing (μM) / SecinH3
ASAP1PZA [2] = target: T1, ASAP1PZA; experiment: thermal shift, soluble fraction by SDS-PAGE; type: binding; conditions: 10 μM protein, no membrane
[3] = read-out: EC50 for cell killing (μM) / Bragsin2
[4] = read-out: EC50 for cell killing (μM) / NAV-2729
[5] = read-out: EC50 for cell killing (μM) / SecinH3

Sequence of ASAP1 (full-length) (Q9QWY8 whole entry): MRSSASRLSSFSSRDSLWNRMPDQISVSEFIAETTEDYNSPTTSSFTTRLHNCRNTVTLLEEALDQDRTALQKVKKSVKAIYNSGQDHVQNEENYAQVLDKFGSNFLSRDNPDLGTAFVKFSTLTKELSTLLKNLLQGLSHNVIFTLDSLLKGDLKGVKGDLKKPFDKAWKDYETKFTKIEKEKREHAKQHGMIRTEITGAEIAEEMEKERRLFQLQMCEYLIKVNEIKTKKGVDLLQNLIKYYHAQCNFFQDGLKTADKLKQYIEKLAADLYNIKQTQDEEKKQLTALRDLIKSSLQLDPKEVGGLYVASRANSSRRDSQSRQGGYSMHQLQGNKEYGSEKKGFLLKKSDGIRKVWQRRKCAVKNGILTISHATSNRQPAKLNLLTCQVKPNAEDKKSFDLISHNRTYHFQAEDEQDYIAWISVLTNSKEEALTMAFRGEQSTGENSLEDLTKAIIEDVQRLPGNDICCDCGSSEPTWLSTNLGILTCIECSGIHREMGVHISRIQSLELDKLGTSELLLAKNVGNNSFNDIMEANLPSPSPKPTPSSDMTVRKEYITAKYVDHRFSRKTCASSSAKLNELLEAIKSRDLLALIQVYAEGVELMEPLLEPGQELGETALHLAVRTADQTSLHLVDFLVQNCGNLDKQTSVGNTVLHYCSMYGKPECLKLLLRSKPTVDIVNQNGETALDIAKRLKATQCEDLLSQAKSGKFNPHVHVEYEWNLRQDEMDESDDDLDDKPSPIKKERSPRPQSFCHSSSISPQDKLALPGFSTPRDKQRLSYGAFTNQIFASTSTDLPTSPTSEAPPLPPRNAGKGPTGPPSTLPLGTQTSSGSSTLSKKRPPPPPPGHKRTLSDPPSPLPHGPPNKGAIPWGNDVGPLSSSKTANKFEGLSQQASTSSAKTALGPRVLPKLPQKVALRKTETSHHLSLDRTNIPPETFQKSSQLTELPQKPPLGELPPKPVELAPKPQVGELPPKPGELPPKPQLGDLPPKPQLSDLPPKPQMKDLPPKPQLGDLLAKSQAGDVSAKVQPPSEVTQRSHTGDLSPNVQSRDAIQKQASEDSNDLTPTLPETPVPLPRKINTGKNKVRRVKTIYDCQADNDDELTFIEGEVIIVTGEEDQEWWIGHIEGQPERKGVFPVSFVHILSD
Sequence of Brag2Sec7-PH (Q6DN90 512-885): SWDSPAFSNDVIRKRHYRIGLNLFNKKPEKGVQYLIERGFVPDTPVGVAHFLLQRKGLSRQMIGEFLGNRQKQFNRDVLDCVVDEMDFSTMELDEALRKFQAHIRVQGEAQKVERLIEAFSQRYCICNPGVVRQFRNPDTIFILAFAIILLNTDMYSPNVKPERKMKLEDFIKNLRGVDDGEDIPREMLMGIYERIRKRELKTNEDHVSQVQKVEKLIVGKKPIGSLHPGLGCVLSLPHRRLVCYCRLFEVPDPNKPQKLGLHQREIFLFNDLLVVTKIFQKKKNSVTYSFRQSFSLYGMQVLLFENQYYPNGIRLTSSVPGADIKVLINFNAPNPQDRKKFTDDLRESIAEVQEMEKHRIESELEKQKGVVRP

Compound: COc1ccc2oc(C(F)(F)F)cc(=O)c2c1[N+](=O)[O-] [Bragsin2]
EC50 (OSA; [3]): > 50 µM | EC50 (U2OS; [3]): > 50 µM

Compound: C[C@H]1CCC/C=C/[C@@H]2C[C@H](O)C[C@H]2[C@H](O)/C=C/C(=O)O1 [Brefeldin A]
EC50 (RD; read-out: EC50 for cell killing (μM) / Brefeldin A): 0.006 ± 0.002 µM

IC50 (Brag2Sec7-PH): 7.1 ± 2.5 µM | IC50 (ASAP1PZA [1]): 4.6 ± 0.9 µM | IC50 (ASAP1 (full-length)): 12.2 ± 1.4 µM | Kd (myrArf1): > 50 µM
Compound: O=c1cc(-c2ccc([N+](=O)[O-])cc2)[nH]c2c(-c3ccc(Cl)cc3)c(Cc3ccccc3)nn12 [NAV-2729]
EC50 (RD; [4]): 8 µM | EC50 (C2C12; C2C12, read-out: EC50 for cell killing (μM) / NAV-2729): 11 µM | EC50 (SMS-CTR; [4]): 11 µM | EC50 (NIH3T3; NIH3T3, read-out: EC50 for cell killing (μM) / NAV-2729): 11 µM

Compound: COc1nc(-c2ccc3c(c2)OCO3)n(-c2ccc(NC(=O)CSc3ccccc3)cc2)n1 [SecinH3]
EC50 (RD; [5]): > 50 µM | EC50 (OSA; [5]): > 50 µM | EC50 (C2C12; C2C12, read-out: EC50 for cell killing (μM) / SecinH3): > 50 µM | EC50 (HeLa): > 50 µM | EC50 (SMS-CTR; [5]): > 50 µM | EC50 (MCF 10A): > 50 µM | EC50 (NIH3T3; NIH3T3, read-out: EC50 for cell killing (μM) / SecinH3): > 50 µM | EC50 (U2OS; [5]): > 50 µM

thermal shift at 200 μM (ASAP1PZA [2]): ~ 6 degree
Compound: CCCCCCCC(=O)OC[C@H](COP(=O)(O)O[C@@H]1[C@H](O)[C@H](O)[C@@H](OP(=O)(O)O)[C@H](OP(=O)(O)O)[C@H]1O)OC(=O)CCCCCCC [diC8-PIP2]
